Test results reported in US9512107B2, “Therapeutically active compositions and their methods of use” (Agios Pharmaceuticals, Inc., priority 2012, dated 2016).

Experiments:
IDH2 R140Q = biological target: T1, IDH2 R140Q (Homo sapiens, UniProt P48735, R140Q); assay: IDH2 R140Q enzymatic assay (cofactor depletion, similar format); format: biochemical; conditions: for IC50: read-out: Enz R140Q
T1 sequence (P48735 40-452 R140Q): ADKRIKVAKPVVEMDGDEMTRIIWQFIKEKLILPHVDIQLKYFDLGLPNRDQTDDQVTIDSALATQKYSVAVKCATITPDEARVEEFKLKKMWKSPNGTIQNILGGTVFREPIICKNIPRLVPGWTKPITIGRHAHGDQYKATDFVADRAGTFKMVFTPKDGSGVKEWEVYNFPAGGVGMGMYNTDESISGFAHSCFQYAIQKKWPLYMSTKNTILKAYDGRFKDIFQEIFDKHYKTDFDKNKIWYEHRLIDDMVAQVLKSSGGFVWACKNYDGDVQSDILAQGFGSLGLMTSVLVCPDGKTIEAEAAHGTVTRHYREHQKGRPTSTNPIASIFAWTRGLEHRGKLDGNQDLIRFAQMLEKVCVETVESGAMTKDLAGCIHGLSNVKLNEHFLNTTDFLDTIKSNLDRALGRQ
Procedure: [The source words this procedure for another variant and says it was used here with some conditions changed.] Compounds are assayed for IDH2 R172K inhibitory activity through a cofactor depletion assay. […] The reaction is terminated by the addition of a second enzyme, diaphorase, and a corresponding substrate, resazurin. Diaphorase reduces resazurin to the highly fluorescent resorufin with the concomitant oxidation of NADPH to NADP, both halting the IDH2 reaction by depleting the available cofactor pool and facilitating quantitation of the amount of cofactor remaining after a specific time period through quantitative production of an easily detected fluorophore.
The test compound is then incubated for one hour at room temperature with the enzyme; before starting the IDH2 reaction with the addition of 10 μl of substrate mix containing 50 μM NADPH and 6.3 mM α-KG in the buffer described above. After a further one hour of incubation at room temperature, the reaction is halted and the remaining NADPH measured through conversion of resazurin to resorufin by the addition of 25 μl Stop Mix (36 μg/ml diaphorase enzyme and 60 μM resazurin; in buffer).

[1] = system: U87MG pLVX-IDH2 R140Q-neo cells; assay: U87MG pLVX-IDH2 R140Q-neo cell based assay, 2-HG in media by LC-MS at 48 hours; conditions: Homo sapiens, U-87 MG
Procedure: U87MG pLVX-IDH2 R140Q-neo cells are grown in T125 flasks in DMEM containing 10% FBS, 1× penicillin/streptomycin and 500 μg/mL G418. They are harvested by trypsin and seeded into 96 well white bottom plates at a density of 5000 cell/well in 100 μl/well in DMEM with 10% FBS. No cells are plated in columns 1 and 12. Cells are incubated overnight at 37° C. in 5% CO2. The next day compounds are made up at 2× concentration and 100 ul are added to each cell well. The final concentration of DMSO is 0.2% and the DMSO control wells are plated in row G. The plates are then placed in the incubator for 48 hours. At 48 hours, 100 ul of media is removed from each well and analyzed by LC-MS for 2-HG concentrations. The cell plate is placed back in the incubator for another 24 hours. At 72 hours post compound addition, 10 mL/plate of Promega Cell Titer Glo reagent is thawed and mixed. The cell plate is removed from the incubator and allowed to equilibrate to room temperature. Then 100 ul of reagent is added to each well of media. The cell plate is then placed on an orbital shaker for 10 minutes and then allowed to sit at room temperature for 20 minutes. The plate is then read for luminescence with an integration time of 500 ms to determine compound effects on growth inhibition.

| Structure (SMILES) | IC50 (IDH2 R140Q) | Enz R140Q (IDH2 R140Q) | IC50 [1] |
| --- | --- | --- | --- |
| c1ccc(-c2nc(NCC3CNCCO3)nc(Nc3ccncc3)n2)cc1 (centres unmarked) [Compound 234, N^2-(morpholin-2-ylmethyl)-6-phenyl-N^4-(pyridin-4-yl)-1,3,5-triazine-2,4-diamine] |  | No Fit |  |
| CC(O)CNc1nc(Nc2ccncc2)nc(-c2ccccc2)n1 (centres unmarked) [Compound 271, 1-(4-phenyl-6-(pyridin-4-ylamino)-1,3,5-triazin-2-ylamino)propan-2-ol] |  | No Fit |  |
| c1ccc(-c2nc(Nc3ccncc3)nc(NC3CCCOC3)n2)cc1 (centres unmarked) [Compound 273, 6-phenyl-N^2-(pyridin-4-yl)-N^4-(tetrahydro-2H-pyran-3-yl)-1,3,5-triazine-2,4-diamine] | > 10000 nM |  |  |
| COC(C)CNc1nc(Nc2ccncc2)nc(-c2ccccc2)n1 (centres unmarked) [Compound 274, N^2-(2-methoxypropyl)-6-phenyl-N^4-(pyridin-4-yl)-1,3,5-triazine-2,4-diamine] | > 10000 nM |  |  |
| CC(CO)Nc1nc(Nc2ccncc2)nc(-c2ccccc2)n1 (centres unmarked) [Compound 278, 2-(4-phenyl-6-(pyridin-4-ylamino)-1,3,5-triazin-2-ylamino)propan-1-ol] |  | No Fit |  |
| CC(C)C(CO)Nc1nc(Nc2ccncc2)nc(-c2ccccc2)n1 (centres unmarked) [Compound 279, 3-methyl-2-(4-phenyl-6-(pyridin-4-ylamino)-1,3,5-triazin-2-ylamino)butan-1-ol] | > 10000 nM |  |  |
| c1ccc(-c2nc(Nc3ccncc3)nc(NC3CCCCC3)n2)cc1 [Compound 280, N^2-cyclohexyl-6-phenyl-N^4-(pyridin-4-yl)-1,3,5-triazine-2,4-diamine] | > 10000 nM |  |  |
| OC1CCCCC1Nc1nc(Nc2ccncc2)nc(-c2ccccc2)n1 (centres unmarked) [Compound 282, 2-(4-phenyl-6-(pyridin-4-ylamino)-1,3,5-triazin-2-ylamino)cyclohexanol] |  | No Fit |  |
| O[C@H]1CC[C@@H](Nc2nc(Nc3ccncc3)nc(-c3ccccc3)n2)C1 [Compound 283, (1S,3R)-3-(4-phenyl-6-(pyridin-4-ylamino)-1,3,5-triazin-2-ylamino)cyclopentanol] |  | No Fit |  |
| CC(C)(C)C(CO)Nc1nc(Nc2ccncc2)nc(-c2ccccc2)n1 (centres unmarked) [Compound 286, 3,3-dimethyl-2-(4-phenyl-6-(pyridin-4-ylamino)-1,3,5-triazin-2-ylamino)butan-1-ol] | > 10000 nM |  |  |
| O=C(CO)Nc1nc(Nc2ccccc2)nc(-c2ccccc2)n1 [Compound 348, 2-hydroxy-N-(4-phenyl-6-(phenylamino)-1,3,5-triazin-2-yl)acetamide] | > 10000 nM |  |  |
| CC#Cc1cccc(-c2nc(Nc3cccc(S(C)(=O)=O)c3)nc(NC(C)C)n2)n1 [Compound 365, N^2-isopropyl-N^4-(3-(methylsulfonyl)phenyl)-6-(6-(prop-1-ynyl)pyridin-2-yl)-1,3,5-triazine-2,4-diamine] | 1000 to 10000 nM |  |  |
| O=C(Nc1nc(Nc2ccccc2)nc(-c2ccccc2)n1)C1(O)CC1 [Compound 412, 1-hydroxy-N-(4-phenyl-6-(phenylamino)-1,3,5-triazin-2-yl)cyclopropanecarboxamide] | 1000 to 10000 nM |  |  |
| O=C1CCC(C(=O)Nc2nc(Nc3ccccc3)nc(-c3ccccc3)n2)N1 (centres unmarked) [Compound 413, 5-oxo-N-(4-phenyl-6-(phenylamino)-1,3,5-triazin-2-yl)pyrrolidine-2-carboxamide] | > 10000 nM |  |  |
| O=C(Nc1nc(Nc2ccccc2)nc(-c2ccccc2)n1)C1CCOC1 (centres unmarked) [Compound 415, N-(4-phenyl-6-(phenylamino)-1,3,5-triazin-2-yl)tetrahydrofuran-3-carboxamide] | > 10000 nM |  |  |

Next, values leading:

| IC50 (IDH2 R140Q) | Enz R140Q (IDH2 R140Q) | IC50 [1] | Structure (SMILES) |
| --- | --- | --- | --- |
| 100 to 1000 nM |  |  | CC(C)Nc1nc(Nc2ccccc2)nc(-c2ccc(C#N)cc2)n1 [Compound 108] |
| 100 to 1000 nM |  |  | CN(C)C(=O)Nc1nc(Nc2ccccc2)nc(-c2ccccc2)n1 [Compound 182, 1,1-dimethyl-3-(4-phenyl-6-(phenylamino)-1,3,5-triazin-2-yl)urea] |
| 100 to 1000 nM |  |  | CCNC(=O)Nc1nc(Nc2ccccc2)nc(-c2ccccc2)n1 [Compound 207, 1-ethyl-3-(4-phenyl-6-(phenylamino)-1,3,5-triazin-2-yl)urea] |
| 100 to 1000 nM |  |  | c1ccc(-c2nc(NCC3CCCO3)nc(Nc3ccncc3)n2)cc1 (centres unmarked) [Compound 222, 6-phenyl-N^2-(pyridin-4-yl)-N^4-((tetrahydrofuran-2-yl)methyl)-1,3,5-triazine-2,4-diamine] |
| 100 to 1000 nM |  |  | CC1(Nc2nc(Nc3ccncc3)nc(-c3ccccc3)n2)COC1 [Compound 251, N^2-(3-methyloxetan-3-yl)-6-phenyl-N^4-(pyridin-4-yl)-1,3,5-triazine-2,4-diamine] |
| 1000 to 10000 nM |  |  | OC1CCC(Nc2nc(Nc3ccncc3)nc(-c3ccccc3)n2)CC1 (centres unmarked) [Compound 256, 4-(4-phenyl-6-(pyridin-4-ylamino)-1,3,5-triazin-2-ylamino)cyclohexanol] |
| 1000 to 10000 nM |  |  | c1ccc(-c2nc(Nc3ccncc3)nc(NC3CCOCC3)n2)cc1 [Compound 258, 6-phenyl-N^2-(pyridin-4-yl)-N^4-(tetrahydro-2H-pyran-4-yl)-1,3,5-triazine-2,4-diamine] |
| 1000 to 10000 nM |  |  | c1ccc(-c2nc(NCC3CCO3)nc(Nc3ccncc3)n2)cc1 (centres unmarked) [Compound 264, N^2-(oxetan-2-ylmethyl)-6-phenyl-N^4-(pyridin-4-yl)-1,3,5-triazine-2,4-diamine] |
| 100 to 1000 nM |  | 1000 to 10000 nM | CC(C)(O)CNc1nc(Nc2ccncc2)nc(-c2ccccc2)n1 [Compound 265, 2-methyl-1-(4-phenyl-6-(pyridin-4-ylamino)-1,3,5-triazin-2-ylamino)propan-2-ol] |
| 100 to 1000 nM |  | 100 to 1000 nM | COCC(C)Nc1nc(Nc2ccncc2)nc(-c2ccccc2)n1 (centres unmarked) [Compound 272, N^2-(1-methoxypropan-2-yl)-6-phenyl-N^4-(pyridin-4-yl)-1,3,5-triazine-2,4-diamine] |
| 100 to 1000 nM |  | 100 to 1000 nM | COCCCNc1nc(Nc2ccncc2)nc(-c2ccccc2)n1 [Compound 275, N^2-(3-methoxypropyl)-6-phenyl-N^4-(pyridin-4-yl)-1,3,5-triazine-2,4-diamine] |
| 100 to 1000 nM |  |  | O=C1CC(Nc2nc(Nc3ccncc3)nc(-c3ccccc3)n2)C1 [Compound 276, 3-(4-phenyl-6-(pyridin-4-ylamino)-1,3,5-triazin-2-ylamino)cyclobutanone] |
| < 100 nM |  | 100 to 1000 nM | CC[S+]([O-])c1cccc(Nc2nc(NC(C)C)nc(-c3ccccc3)n2)c1 (centres unmarked) [Compound 277, N^2-(3-(ethylsulfinyl)phenyl)-N^4-isopropyl-6-phenyl-1,3,5-triazine-2,4-diamine] |
| < 100 nM |  | 100 to 1000 nM | Cc1ccc(Nc2nc(NC(C)C)nc(-c3ccccc3)n2)cn1 [Compound 281, N^2-isopropyl-N^4-(6-methylpyridin-3-yl)-6-phenyl-1,3,5-triazine-2,4-diamine] |
| 100 to 1000 nM |  | 100 to 1000 nM | N#CC1(Nc2nc(Nc3ccncc3)nc(-c3ccccc3)n2)CCC1 [Compound 284, 1-(4-phenyl-6-(pyridin-4-ylamino)-1,3,5-triazin-2-ylamino)cyclobutanecarbonitrile] |
| 1000 to 10000 nM |  |  | N#CC1(Nc2nc(Nc3ccncc3)nc(-c3ccccc3)n2)CC1 [Compound 285, 1-(4-phenyl-6-(pyridin-4-ylamino)-1,3,5-triazin-2-ylamino)cyclopropanecarbonitrile] |
| 100 to 1000 nM |  |  | c1ccc(-c2nc(Nc3ccncc3)nc(NC3CCCC3)n2)cc1 [Compound 287, N^2-cyclopentyl-6-phenyl-N^4-(pyridin-4-yl)-1,3,5-triazine-2,4-diamine] |
| < 100 nM |  | < 100 nM | Cc1cc(Nc2nc(NC(C)C)nc(-c3ccccc3)n2)ccn1 [Compound 288, N^2-isopropyl-N^4-(2-methylpyridin-4-yl)-6-phenyl-1,3,5-triazine-2,4-diamine] |
| 100 to 1000 nM |  |  | O=C(Nc1nc(Nc2ccccc2)nc(-c2ccccc2)n1)c1ccn[nH]1 [Compound 347, N-(4-phenyl-6-(phenylamino)-1,3,5-triazin-2-yl)-1H-pyrazole-5-carboxamide] |
